Measurements as given in patent US7196117B2, “Use of cationic surfactant as activity enhancer in deodorants and oral care” (Laboratorios Miret, S.A., priority 2001, dated 2007).

Legend:
toxicological studies = format: in vivo; conditions: animals and humans
metabolism in rats = format: in vivo

CCCCCCCCCCCC(=O)N[C@@H](CCCN=C(N)N)C(=O)OCC.Cl [LAE, ethyl ester of the lauramide of the arginine monohydrochloride]
toxicity (toxicological studies): completely harmless to animals and humans | absorption and metabolism (metabolism in rats): fast absorption and metabolism into naturally-occurring amino acids and the fatty acid lauric acid
